Structures can show the parent of a compound that is named as a salt.
Target: T1, human factor VIIa and TF (factor VIIa/tissue factor) (Homo sapiens, UniProt P08709)
T1 construct: human factor VIIa and TF
Experiment: Factor VIIa (FVIIa) chromogenic assay
Type: biochemical
Conditions: chromogenic substrate S-2288 500 μM; 5 nM FVIIa, 10 nM TF; 25° C.; 15 minute preincubation; pH 8.15
Procedure: The ability of the compounds of the formulae I and Ia to inhibit factor VIIa or other enzymes like factor Xa, thrombin, plasmin, or trypsin can be assessed by determining the concentration of the compound of the formulae I and Ia that inhibits enzyme activity by 50%, i. e. the IC50 value, which is related to the inhibition constant Ki. Purified enzymes are used in chromogenic assays. The concentration of inhibitor that causes a 50% decrease in the rate of substrate hydrolysis is determined by linear regression after plotting the relative rates of hydrolysis (compared to the uninhibited control) versus the log of the concentration of the compound of formulae I and Ia. For calculating the inhibition constant Ki, the IC50 value is corrected for competition with substrate using the formula Ki=IC50/{1+(substrate concentration/Km)} wherein Km is the Michaelis-Menten constant (Chen and Prusoff, Biochem. Pharmacol. 22 (1973), 3099-3108; I. H. Segal, Enzyme Kinetics, 1975, John Wiley & Sons, New York, 100-125; which are incorporated herein by reference).
Factor VIIa (FVIIa) Assay
The inhibitory activity (expressed as inhibition constant Ki(FVIIa)) of the compounds of formulae I and Ia towards factor VIIa/tissue factor activity was determined using a chromogenic assay essentially as described previously (J. A. Ostrem et al., Biochemistry 37 (1998) 1053-1059 which is incorporated herein by reference). Kinetic assays were conducted at 25° C. in half-area microtiter plates (Costar Corp., Cambridge, Ma.) using a kinetic plate reader (Molecular Devices Spectramax 250). A typical assay consisted of 25 μl human factor VIIa and TF (5 nM and 10 nM, respective final concentration) combined with 40 μl of inhibitor dilutions in 10% DMSO/TBS-PEG buffer (50 mM Tris, 15 mM NaCl, 5 mM CaCl2, 0.05% PEG 8000, pH 8.15). Following a 15 minute preincubation period, the assay was initiated by the addition of 35 μl of the chromogenic substrate S-2288 (D-Ile-Pro-Arg-p-nitroanilide, Pharmacia Hepar Inc., 500 μM final concentration).

T1 sequence (P08709 213-466 limits assumed): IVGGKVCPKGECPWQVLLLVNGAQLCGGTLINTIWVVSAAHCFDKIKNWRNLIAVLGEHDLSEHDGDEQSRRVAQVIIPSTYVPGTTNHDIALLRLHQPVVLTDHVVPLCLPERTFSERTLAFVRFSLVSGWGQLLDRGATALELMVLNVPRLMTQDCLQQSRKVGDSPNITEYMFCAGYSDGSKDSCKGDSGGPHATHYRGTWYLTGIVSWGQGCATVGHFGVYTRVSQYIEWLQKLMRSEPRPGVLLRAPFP
T1 sequence (P08709 61-212 limits assumed): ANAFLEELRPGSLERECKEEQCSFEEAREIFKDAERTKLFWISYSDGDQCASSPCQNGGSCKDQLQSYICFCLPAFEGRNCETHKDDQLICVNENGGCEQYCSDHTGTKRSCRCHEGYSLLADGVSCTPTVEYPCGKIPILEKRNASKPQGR
T1 sequence (P13726 33-295 partner): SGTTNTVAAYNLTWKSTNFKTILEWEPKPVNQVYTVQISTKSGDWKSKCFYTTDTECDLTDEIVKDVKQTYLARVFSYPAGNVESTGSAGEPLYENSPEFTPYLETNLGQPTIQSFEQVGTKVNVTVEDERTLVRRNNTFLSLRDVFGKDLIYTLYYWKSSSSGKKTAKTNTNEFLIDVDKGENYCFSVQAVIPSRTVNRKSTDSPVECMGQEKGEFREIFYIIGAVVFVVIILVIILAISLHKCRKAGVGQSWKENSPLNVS

Ki [nM]	Compound
27	COCCN(C)S(=O)(=O)c1ccc([C@H](C)NC(=O)CC(=O)Nc2ccc(C(=N)N)cc2)cc1C(F)(F)F [Example 76]
588	CC(NC(=O)CC(=O)Nc1ccc(C(=N)N)cc1)c1ccc(S(=O)(=O)Cc2ccncc2)c(Cl)c1 (centres unmarked) [Example 67]
7	C[C@H](NC(=O)CC(=O)Nc1ccc(C(=N)N)cc1)c1ccc(OC2CCOCC2)c(-c2ccc(Cl)s2)c1 [Example 113]
36	CC(NC(=O)CC(=O)Nc1ccc(C(=N)N)cc1)c1ccc(S(=O)(=O)c2ccncc2)c(C(F)(F)F)c1 (centres unmarked) [Example 74, N-(4-Carbamimidoyl-phenyl)-N′-{1-[4-(pyridine-4-sulfonyl)-3-trifluoromethyl-phenyl]-ethyl}-malonamide*trifluoro-acetic acid salt]
37	COCCNS(=O)(=O)c1ccc([C@H](C)NC(=O)CC(=O)Nc2ccc(C(=N)N)cc2)cc1C(F)(F)F [Example 75]
30	C[C@H](NC(=O)CC(=O)Nc1ccc(C(=N)N)cc1)c1ccc(S(=O)(=O)N2CCOCC2)c(Br)c1 [Example 117]
29	C[C@H](NC(=O)CC(=O)Nc1ccc(C(=N)N)cc1)c1ccc(S(=O)(=O)N2CCOC[C@@H]2C)c(C(F)(F)F)c1 [Example 112]

Further lines, the compound ahead of its results:

Compound	Ki [nM]
Cc1ncsc1CCOc1ccc(C(C)NC(=O)CC(=O)Nc2ccc(C(=N)N)cc2)cc1Br (centres unmarked) [Example 61]	87
CC(NC(=O)CC(=O)Nc1ccc(C(=N)N)cc1)c1ccc(S(=O)(=O)N2CCOCC2)c(C(F)(F)F)c1 (centres unmarked) [Example 28, N-(4-Carbamimidoyl-phenyl)-N′-{1-[4-(morpholine-4-sulfonyl)-3-trifluoromethyl-phenyl]-ethyl}-malonamide*trifluoro-acetic acid salt]	55
COCCOc1ccc([C@H](C)NC(=O)CC(=O)Nc2ccc(C(=N)N)cc2)cc1C(F)(F)F [Example 10, N-(4-Carbamimidoyl-phenyl)-N′—{(S)-1-[4-(2-methoxy-ethoxy)-3-trifluoromethyl-phenyl]-ethyl}-malonamide]	24
C[C@H](NC(=O)CC(=O)Nc1ccc(C(=N)N)cc1)c1ccc(Oc2cncc(C(=O)O)c2)c(Br)c1 [Example 1, 5-(2-Bromo-4-{(S)-1-[2-(4-carbamimidoyl-phenylcarbamoyl)-acetylamino]-ethyl}-phenoxy)-nicotinic acid*acetic acid salt]	41
N-(4-Carbamimidoyl-phenyl)-N′—[(S)-1-(3-trifluoromethanesulfonyl-phenyl)-ethyl]-malonamide*trifluoro-acetic acid salt [Example 77]	99
CC(C)OCCOc1ccc(C(C)NC(=O)CC(=O)Nc2ccc(C(=N)N)cc2)cc1C(F)(F)F (centres unmarked) [Example 24]	61
CC(NC(=O)CC(=O)Nc1ccc(C(=N)N)cc1)c1ccc(OCCCCCC(=O)O)c(Br)c1 (centres unmarked) [Example 3]	169
CC(NC(=O)CC(=O)Nc1ccc(C(=N)N)cc1)c1ccc(OCCCN2CCCC2=O)c(C(F)(F)F)c1 (centres unmarked) [Example 44]	78
CC(NC(=O)CC(=O)Nc1ccc(C(=N)N)cc1)c1ccc(OCCCCO)c(C(F)(F)F)c1 (centres unmarked) [Example 51]	122
CC(NC(=O)CC(=O)Nc1ccc(C(=N)N)cc1)c1ccc(OCc2ccoc2)c(Br)c1 (centres unmarked) [Example 52]	87
CC(NC(=O)CC(=O)Nc1ccc(C(=N)N)cc1)c1ccc(Oc2cccc(CO)c2)c(Br)c1 (centres unmarked) [Example 2, N-{1-[3-Bromo-4-(3-hydroxymethyl-phenoxy)-phenyl]-ethyl}-N′-(4-carbamimidoyl-phenyl)-malonamide*trifluoro-acetic acid salt]	171
COC1CCC(Oc2ccc(C(C)NC(=O)CC(=O)Nc3ccc(C(=N)N)cc3)cc2C(F)(F)F)CC1 (centres unmarked) [Example 50]	80
C[C@H](NC(=O)CC(=O)Nc1ccc(C(=N)N)cc1)c1ccc(OCCO)c(C(F)(F)F)c1 [Example 26]	47

From US8143242B2, “Malonamide derivatives with antithrombotic activity” (Sanofi-Aventis, priority 2007, dated 2012)
